Values of other authors, collected in PMC11286589, “Population pharmacokinetics and exposure–response analyses of SAF-189s in Chinese patients with ALK+/ROS1+ non-small cell lung cancer” (Frontiers in Pharmacology, 2024).

Details: cited from earlier work

Cc1cc(Nc2ncc(Cl)c(Nc3ccccc3S(=O)(=O)C(C)C)n2)c(OC(C)C)cc1C1CCNCC1 [ceritinib]
incidence rate of hyperglycemia (FIH trial, ref Khozin et al., 2015): 49%

C[C@@H](Oc1cc(-c2cnn(C3CCNCC3)c2)cnc1N)c1c(Cl)ccc(F)c1Cl [crizotinib]
effect on glucose tolerance in patients (current clinical use, ref Camidge et al., 2018, Seto et al., 2019, Wolf et al., 2022): no effects on glucose tolerance
